Experimental data: paper PMC10313671, “Accelerating the prediction and discovery of peptide hydrogels with human-in-the-loop” (Nature Communications, 2023)
Where a SMILES comes first, the peptide text is derived from it.

Assays:
[1] = Peptide hydrogel formation, vial-inverting method; type: physicochemical; design: key to EXP / GELATION: 0: no hydrogel; 1: hydrogel; conditions: for State: ultrasonication, standing 48 h; for Concentration: concentration at which the state was recorded: lowest of 30, 60, 90, 120 mM that gave a gel, 120 mM for non-gelating peptides; for GELATION: 1 = hydrogel, 0 = no hydrogel
Description: After validating the efficiency of APHC in predicting tetrapeptide hydrogels, we detailed the phase state of 165 synthesized tetrapeptides and the observed assembly behavior in an aqueous solution.
This work defines hydrogel formation as a self-supporting, non-flowing mixture of water and hydrogelator by the vial-inverting method. All purified tetrapeptides were dissolved in ultrapure water (to form a 30 mM solution initially), followed by the stepwise addition of 1 N NaOH solution to adjust the overall aqueous pH to 6.5–8.5. Meanwhile, a short-term ultrasonication treatment was applied after each pH adjustment to facilitate peptide solubilization and speed up peptide self-assembly. […] The mixture was allowed to stand in for another 48 h for complete hydrogelation. Upon the absence of gelation phenomenon during the aforementioned loops, we increased the peptide concentration (60 mM, 90 mM, and 120 mM were selected) and re-started such gelation operation loop to explore their gelation feasibility.

[2] = Transmission electron microscope (negative staining) of peptide assemblies; conditions: for Morphology: TEM, negative staining with uranyl acetate, 120 kV; for morphology by TEM (in words): aqueous solution or hydrogel, negative staining
Description: We used the negative staining technique to observe the morphologies formed by peptides. A micropipette was used to load 10 μL of sample solution to a carbon-coated copper grid, and we used a piece of filter paper to remove the excess solution. After rinsing the grid with the deionized water, we used uranyl acetate to stain the sample for 1 minute and then rinsed the grid with deionized water again.

[3] = 30 mM peptide in ultrapure water, pH adjusted to 6.5-8.5 with 1 N NaOH, vial-inverting method, concentration raised 30/60/90/120 mM until gelation
[4] = peptide concentration 30 mM, vial-inverting method
[5] = 120 mM peptide (highest tested) in ultrapure water, pH 6.5-8.5 (1 N NaOH), vial-inverting method, precipitate, sol, suspension = no gel
[6] = peptide concentration 120 mM, vial-inverting method
[7] = 60 mM peptide in ultrapure water, pH 6.5-8.5 (1 N NaOH), vial-inverting method, no gel at 30 mM
[8] = peptide concentration 60 mM, vial-inverting method
[9] = 90 mM peptide in ultrapure water, pH 6.5-8.5 (1 N NaOH), vial-inverting method, no gel at lower concentrations
[10] = peptide concentration 90 mM, vial-inverting method

SMILES	Concentration [1]	State [1, 5]	GELATION [1, 6]	Morphology ([2]; line of the table gives 120 mM)	further results
CC[C@H](C)[C@H](N)C(=O)N[C@H](C(=O)N[C@H](C(=O)N[C@@H](Cc1ccccc1)C(=O)O)[C@@H](C)CC)C(C)C [IVIF] (H-IVIF-OH)	30000 µM	–	–	–	State [1, 3]: gel; GELATION [1, 4]: 1; Morphology ([2]; line of the table gives 30 mM): sphere
CC[C@H](C)[C@H](N)C(=O)N[C@@H](Cc1c[nH]cn1)C(=O)N[C@@H](Cc1ccccc1)C(=O)N[C@H](C(=O)O)C(C)C [IHFV] (H-IHFV-OH)	120000 µM	sol	0	sphere	–
N[C@@H](CS)C(=O)N[C@@H](Cc1c[nH]c2ccccc12)C(=O)N[C@@H](Cc1ccccc1)C(=O)N[C@@H](CO)C(=O)O [CWFS] (H-CWFS-OH)	30000 µM	–	–	–	State [1, 3]: gel; GELATION [1, 4]: 1; Morphology ([2]; line of the table gives 30 mM): fibre
CC(C)C[C@H](NC(=O)CN)C(=O)N[C@@H](CC(C)C)C(=O)N[C@@H](Cc1ccc(O)cc1)C(=O)O [GLLY] (H-GLLY-OH)	120000 µM	suspension	0	sheet	EXP ([1]; experimental gelation result of the synthesized peptide): 0
CSCC[C@H](NC(=O)[C@@H](N)Cc1ccccc1)C(=O)N[C@@H](Cc1ccc(O)cc1)C(=O)N[C@@H](CO)C(=O)O [FMYS] (H-FMYS-OH)	120000 µM	sol	0	aggregates	–
CC[C@H](C)[C@H](NC(=O)[C@H](Cc1ccc(O)cc1)NC(=O)[C@H](Cc1ccc(O)cc1)NC(=O)[C@@H]1CCCN1)C(=O)O [PYYI] (H-PYYI-OH)	120000 µM	sol	0	aggregates	–
CC(C)C[C@H](NC(=O)[C@@H](NC(=O)[C@H](CC(C)C)NC(=O)[C@@H](N)C(C)C)C(C)C)C(=O)O [VLVL] (H-VLVL-OH)	120000 µM	gel	1	sheet	–
C[C@H](NC(=O)[C@@H](N)Cc1c[nH]c2ccccc12)C(=O)N[C@@H](Cc1ccccc1)C(=O)N[C@@H](Cc1ccc(O)cc1)C(=O)O [WAFY] (H-WAFY-OH)	60000 µM	–	–	–	State [1, 7]: gel; GELATION [1, 8]: 1; Morphology ([2]; line of the table gives 60 mM): fibre
NC(=O)C[C@H](N)C(=O)N[C@@H](Cc1c[nH]c2ccccc12)C(=O)N[C@@H](Cc1c[nH]c2ccccc12)C(=O)N[C@@H](Cc1ccccc1)C(=O)O [NWWF] (H-NWWF-OH)	30000 µM	–	–	–	State [1, 3]: gel; GELATION [1, 4]: 1; Morphology ([2]; line of the table gives 30 mM): sphere
CSCC[C@H](NC(=O)[C@@H](N)CCSC)C(=O)N[C@@H](Cc1ccc(O)cc1)C(=O)N[C@@H](Cc1ccc(O)cc1)C(=O)O [MMYY] (H-MMYY-OH)	120000 µM	suspension	0	particle	–
N=C(N)NCCC[C@H](NC(=O)[C@H](CCCNC(=N)N)NC(=O)[C@H](CCCNC(=N)N)NC(=O)[C@@H](N)CCCNC(=N)N)C(=O)O [RRRR] (H-RRRR-OH)	120000 µM	sol	0	aggregates	morphology by TEM (in words) [2]: aggregates with different sizes
N[C@@H](CS)C(=O)N[C@@H](Cc1c[nH]cn1)C(=O)N[C@@H](Cc1ccccc1)C(=O)N[C@@H](Cc1c[nH]c2ccccc12)C(=O)O [CHFW] (H-CHFW-OH)	30000 µM	–	–	–	State [1, 3]: gel; GELATION [1, 4]: 1; Morphology ([2]; line of the table gives 30 mM): sphere
CSCC[C@H](N)C(=O)N[C@H](C(=O)N[C@@H](CCC(N)=O)C(=O)NCC(=O)O)C(C)C [MVQG] (H-MVQG-OH)	120000 µM	suspension	0	aggregates	–
NCCCC[C@H](NC(=O)[C@@H](N)Cc1c[nH]c2ccccc12)C(=O)N[C@@H](Cc1ccccc1)C(=O)N[C@@H](Cc1ccccc1)C(=O)O [WKFF] (H-WKFF-OH)	60000 µM	–	–	–	State [1, 7]: gel; GELATION [1, 8]: 1; hydrogel formation (in words) ([1]; vial-inverting method, representative hydrogels pH between 7.0 to 7.5): hydrogels; morphology by TEM (in words) [2]: entangled nanofibers
NC(=O)C[C@H](NC(=O)[C@H](CC(N)=O)NC(=O)[C@H](CC(N)=O)NC(=O)[C@@H](N)CC(N)=O)C(=O)O [NNNN] (H-NNNN-OH)	120000 µM	sol	0	aggregates	–
CC(C)C[C@H](N)C(=O)N[C@@H](CO)C(=O)N[C@@H](Cc1ccccc1)C(=O)N[C@@H](Cc1c[nH]c2ccccc12)C(=O)O [LSFW] (H-LSFW-OH)	60000 µM	–	–	–	State [1, 7]: gel; GELATION [1, 8]: 1; Morphology ([2]; line of the table gives 60 mM): hybrid(sphere+fibre)
CC(C)C[C@H](N)C(=O)N[C@@H](Cc1c[nH]c2ccccc12)C(=O)N[C@@H](Cc1c[nH]c2ccccc12)C(=O)N[C@@H](Cc1ccccc1)C(=O)O [LWWF] (H-LWWF-OH)	30000 µM	–	–	–	State [1, 3]: gel; GELATION [1, 4]: 1; Morphology ([2]; line of the table gives 30 mM): aggregates
N[C@@H](CO)C(=O)N[C@@H](CO)C(=O)N[C@@H](CO)C(=O)N[C@@H](CO)C(=O)O [SSSS] (H-SSSS-OH)	120000 µM	suspension	0	blank	–
CC[C@H](C)[C@H](NC(=O)[C@@H](NC(=O)[C@@H](N)CC(N)=O)[C@@H](C)O)C(=O)N[C@@H](Cc1ccccc1)C(=O)O [NTIF] (H-NTIF-OH)	60000 µM	–	–	–	State [1, 7]: gel; GELATION [1, 8]: 1; Morphology ([2]; line of the table gives 60 mM): fibre
CSCC[C@H](NC(=O)[C@@H](N)CCCCN)C(=O)N[C@@H](CC(C)C)C(=O)N[C@@H](Cc1ccccc1)C(=O)O [KMLF] (H-KMLF-OH)	120000 µM	suspension	0	aggregates	–
C[C@@H](O)[C@H](N)C(=O)NCC(=O)N[C@@H](Cc1ccccc1)C(=O)N[C@@H](Cc1ccccc1)C(=O)O [TGFF] (H-TGFF-OH)	120000 µM	gel	1	aggregates	–
CC(C)[C@H](N)C(=O)N[C@@H](Cc1ccccc1)C(=O)N[C@@H](Cc1c[nH]cn1)C(=O)N[C@@H](CC(N)=O)C(=O)O [VFHN] (H-VFHN-OH)	120000 µM	suspension	0	aggregates	–
CC[C@H](C)[C@H](N)C(=O)N[C@H](C(=O)N[C@H](C(=O)N[C@@H](Cc1ccc(O)cc1)C(=O)O)[C@@H](C)CC)C(C)C [IVIY] (H-IVIY-OH)	60000 µM	–	–	–	State [1, 7]: gel; GELATION [1, 8]: 1; Morphology ([2]; line of the table gives 60 mM): aggregates
N[C@@H](CC(=O)O)C(=O)N[C@@H](CC(=O)O)C(=O)N[C@@H](CC(=O)O)C(=O)N[C@@H](CC(=O)O)C(=O)O [DDDD] (H-DDDD-OH)	120000 µM	sol	0	sphere	–
O=C(O)[C@H](Cc1c[nH]c2ccccc12)NC(=O)[C@H](Cc1ccc(O)cc1)NC(=O)[C@H](Cc1c[nH]c2ccccc12)NC(=O)[C@@H]1CCCN1 [PWYW] (H-PWYW-OH)	120000 µM	gel	1	aggregates	–
CSCC[C@H](NC(=O)[C@@H](N)Cc1ccccc1)C(=O)N[C@@H](CC(C)C)C(=O)N[C@@H](Cc1ccccc1)C(=O)O [FMLF] (H-FMLF-OH)	30000 µM	–	–	–	State [1, 3]: gel; GELATION [1, 4]: 1; Morphology ([2]; line of the table gives 30 mM): sheet
CC(C)C[C@H](NC(=O)[C@@H](N)Cc1c[nH]c2ccccc12)C(=O)N[C@H](C(=O)N[C@@H](Cc1c[nH]c2ccccc12)C(=O)O)C(C)C [WLVW] (H-WLVW-OH)	90000 µM	–	–	–	State [1, 9]: gel; GELATION [1, 10]: 1; Morphology ([2]; line of the table gives 90 mM): fibre
CC(C)[C@H](NC(=O)[C@@H]1CCCN1)C(=O)N[C@@H](Cc1ccccc1)C(=O)N[C@@H](Cc1c[nH]c2ccccc12)C(=O)O [PVFW] (H-PVFW-OH)	60000 µM	–	–	–	State [1, 7]: gel; GELATION [1, 8]: 1; Morphology ([2]; line of the table gives 60 mM): hybrid(needle+fibre)
CC(C)C[C@H](NC(=O)[C@H](CC(C)C)NC(=O)[C@@H](N)Cc1c[nH]cn1)C(=O)N[C@@H](Cc1ccccc1)C(=O)O [HLLF] (H-HLLF-OH)	90000 µM	–	–	–	State [1, 9]: gel; GELATION [1, 10]: 1; Morphology ([2]; line of the table gives 90 mM): sheet
